From patent publication US7202265B2, “Indolinone combinatorial libraries and related products and methods for the treatment of disease” (Sugen, Inc., priority 1997, dated 2007)
Like-named read-outs stand apart in the source and are kept apart here.

Legend:
[1] = tested on: human MET; test: MET biochemical kinase assay; parameters: concentration or dose not given beside the values
Procedure, shortened: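 MET captured from cell lysates onto plates coated with goat anti-rabbit Fc plus rabbit polyclonal anti-MET cytoplasmic-domain antibody; after washing, compounds added with kinase buffer containing ATP and divalent metal ions. Receptor tyrosine phosphorylation detected by HRP-conjugated anti-phosphotyrosine antibody, TMB colorimetric read-out.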

[2] = molecular target: T1, FLK-1 receptor (Mus musculus, UniProt P35918); test: FLK-1 ELISA (catalytic activity of the FLK-1 receptor in FLK-1/NIH3T3 cells); format: cell-based; parameters: Flk Kinase % Inhibition: concentration or dose not given beside the values; settings: for Activity EC200: Table 8
T1 construct: expressed in transfected cells; host or cells: NIH3T3 C7#3 (FLK-1/NIH3T3)

[3] = molecular target: T2, EGFR (Homo sapiens, UniProt P00533); test: EGFR ELISA assay (in vitro kinase activity, A431 cell lysate); format: biochemical; parameters: concentration or dose not given beside the values
T2 construct: Add 7 ug A431 cell lysate per well (EGFR source); endogenous in cells; host or cells: A431 cells (lysate)
Method: To provide a consistent method for measuring the in vitro kinase activity of the EGFR in an Enzyme-linked immunosorbent assay (Elisa).
Scope. The following protocol describes the procedures used to analyze protein tyrosine kinase activity on the EGFR in an Elisa. The procedure also describes the protocol for the initial screening of drugs for inhibition or activation of protein tyrosine kinase activity.
1. Coat Corning 96-well elisa plates with 0.5 ug per well 05-101 antibody. • Bring final volume to 100 ul per well with PBS. • Coat plates overnight at […].
2. Remove unbound 05-101 from wells by inverting plate to remove liquid. • Wash 1× with distilled H2O by filling wells • Pat the plate on a paper towel to remove excess liquid.
3. Block plates with 5% milk in PBS. • 150 ul per well. • Incubate plate 30 minutes while shaking on a microtiter plate shaker.
4. Wash plate 3× with dionized water, then once with TBST
5. Add 7 ug A431 cell lysate per well (EGFR source). • Add PBS to final volume of 100 ul per well • Incubate 30 minutes while shaking.
6. Wash as described in step 4.
8. […] It is best to add the ATP/MnCl2 with an 12 channel pipettor 1 row at a time leaving 20 seconds between each row so that the reaction may be stopped with EDTA exactly 5 minutes later (this depends on the number of plates being phosphorylated in one batch). Shake between each addition.
9. After 5 minutes, to stop reaction, add 16.5 ul of 200 mM EDTA pH 8.0 for 20 mM final in well, shaking continuously between each addition. This is done using the same timing method as above. After last row has received EDTA, shake plate an additional minute.
10. Wash 4× with deionized water, twice with TBST.
11. Add rabbit polyclonal anti-phosphotyrosine serum. • Dilute 1:3000 in TBST. • Add 100 ul per well. • Incubate 30–45 minutes while shaking.
12. Wash as described above in step 4.
13. Add BioSource anti-rabbit peroxidase conjugate antibody. • Dilute 1:2000 in TBST. • Add 100 ul per well. • Incubate 30 minutes while shaking.
14. Wash as described in step 4.
15. Add 100 ul of ABTS/H2O2 solution to well. • Incubate 5 to 10 minutes while shaking. • Remove bubbles
16. If necessary stop reaction with the addition of 100 ul of 0.2M HCl per well
17. Read assay on Dynatech MR7000 elisa reader. • Test Filter: 410 nM • Reference Filter: 630 nM

[4] = molecular target: platelet derived growth factor protein kinase (PDGFR) (Homo sapiens, UniProt P09619); test: PDGF-R ELISA; format: cell-based; parameters: concentration or dose not given beside the values
Source text: A PDGF-R ELISA is described in International Patent Publication No. WO 96/40116, published Dec. 19, 1996 by Tang et al.

[5] = Table 7, read-out: Activity 1C50 FLK Kinase
[6] = Table 2, read-out: FLK Kinase IC50
[7] = Table 10, read-out: FLK Kinase IC50
[8] = Table 6, read-out: FLK Kinase IC50

T1 sequence (P35918 20-1345): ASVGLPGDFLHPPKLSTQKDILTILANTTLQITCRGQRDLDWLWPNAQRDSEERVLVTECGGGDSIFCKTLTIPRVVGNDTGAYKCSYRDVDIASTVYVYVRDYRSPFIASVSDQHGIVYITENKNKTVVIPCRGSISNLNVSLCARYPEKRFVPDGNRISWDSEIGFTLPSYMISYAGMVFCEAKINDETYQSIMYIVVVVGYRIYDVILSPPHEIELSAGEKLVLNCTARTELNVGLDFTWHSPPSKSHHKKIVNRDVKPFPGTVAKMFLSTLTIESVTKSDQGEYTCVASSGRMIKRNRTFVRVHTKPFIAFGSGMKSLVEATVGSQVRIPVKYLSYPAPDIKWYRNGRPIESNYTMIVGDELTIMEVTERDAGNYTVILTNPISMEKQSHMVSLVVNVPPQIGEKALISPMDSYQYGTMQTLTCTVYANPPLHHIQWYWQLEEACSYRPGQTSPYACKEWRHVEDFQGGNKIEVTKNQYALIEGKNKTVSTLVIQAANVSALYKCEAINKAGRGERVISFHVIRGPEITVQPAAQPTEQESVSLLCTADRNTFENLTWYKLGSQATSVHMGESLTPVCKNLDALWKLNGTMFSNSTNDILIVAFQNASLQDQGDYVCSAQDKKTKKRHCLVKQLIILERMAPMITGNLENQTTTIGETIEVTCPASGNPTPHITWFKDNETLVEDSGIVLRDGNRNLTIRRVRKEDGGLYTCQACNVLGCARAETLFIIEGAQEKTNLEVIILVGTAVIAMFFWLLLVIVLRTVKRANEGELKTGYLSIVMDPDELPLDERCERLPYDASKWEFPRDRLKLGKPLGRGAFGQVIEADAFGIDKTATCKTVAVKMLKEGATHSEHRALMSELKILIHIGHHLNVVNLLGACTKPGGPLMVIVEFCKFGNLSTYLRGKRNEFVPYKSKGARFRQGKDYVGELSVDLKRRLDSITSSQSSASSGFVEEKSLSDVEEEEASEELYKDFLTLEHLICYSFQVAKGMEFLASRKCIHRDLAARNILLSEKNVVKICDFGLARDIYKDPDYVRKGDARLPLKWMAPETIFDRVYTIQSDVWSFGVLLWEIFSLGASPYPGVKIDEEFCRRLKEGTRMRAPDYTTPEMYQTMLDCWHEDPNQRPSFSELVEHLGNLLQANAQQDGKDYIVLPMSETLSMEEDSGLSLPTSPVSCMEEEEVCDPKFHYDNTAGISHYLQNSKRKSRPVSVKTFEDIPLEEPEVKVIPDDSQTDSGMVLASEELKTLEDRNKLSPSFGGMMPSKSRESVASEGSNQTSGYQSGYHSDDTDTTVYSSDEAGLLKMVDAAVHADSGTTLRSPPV
Sequence of platelet derived growth factor protein kinase (PDGFR) (P09619 33-1106): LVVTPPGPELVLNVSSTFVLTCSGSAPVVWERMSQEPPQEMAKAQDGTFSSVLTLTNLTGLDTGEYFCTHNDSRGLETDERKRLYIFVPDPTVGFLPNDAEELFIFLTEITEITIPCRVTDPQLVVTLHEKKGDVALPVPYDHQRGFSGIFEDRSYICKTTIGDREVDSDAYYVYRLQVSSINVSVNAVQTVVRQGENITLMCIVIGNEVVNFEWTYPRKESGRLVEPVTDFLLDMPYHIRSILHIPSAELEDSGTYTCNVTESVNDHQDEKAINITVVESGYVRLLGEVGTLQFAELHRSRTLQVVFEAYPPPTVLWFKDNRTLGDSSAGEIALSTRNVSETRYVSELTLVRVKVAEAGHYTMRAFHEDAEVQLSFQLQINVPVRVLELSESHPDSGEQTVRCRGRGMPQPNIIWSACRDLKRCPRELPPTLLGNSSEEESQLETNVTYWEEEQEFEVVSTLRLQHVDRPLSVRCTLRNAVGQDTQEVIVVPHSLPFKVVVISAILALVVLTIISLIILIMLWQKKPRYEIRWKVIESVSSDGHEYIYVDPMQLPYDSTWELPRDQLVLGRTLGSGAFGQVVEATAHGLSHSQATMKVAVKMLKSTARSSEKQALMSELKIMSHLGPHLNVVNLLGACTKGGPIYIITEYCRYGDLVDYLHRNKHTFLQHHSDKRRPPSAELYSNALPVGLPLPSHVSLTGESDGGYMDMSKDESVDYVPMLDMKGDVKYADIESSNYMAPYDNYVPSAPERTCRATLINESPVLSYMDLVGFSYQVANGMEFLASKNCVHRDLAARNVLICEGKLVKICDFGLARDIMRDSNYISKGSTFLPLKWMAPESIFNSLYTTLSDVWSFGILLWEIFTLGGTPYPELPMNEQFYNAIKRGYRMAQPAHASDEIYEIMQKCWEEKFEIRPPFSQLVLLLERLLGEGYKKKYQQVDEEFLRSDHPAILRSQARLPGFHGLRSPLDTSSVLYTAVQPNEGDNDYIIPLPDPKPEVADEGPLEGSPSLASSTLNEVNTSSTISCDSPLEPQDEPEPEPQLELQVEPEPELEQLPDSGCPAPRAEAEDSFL
T2 sequence (P00533 25-1210): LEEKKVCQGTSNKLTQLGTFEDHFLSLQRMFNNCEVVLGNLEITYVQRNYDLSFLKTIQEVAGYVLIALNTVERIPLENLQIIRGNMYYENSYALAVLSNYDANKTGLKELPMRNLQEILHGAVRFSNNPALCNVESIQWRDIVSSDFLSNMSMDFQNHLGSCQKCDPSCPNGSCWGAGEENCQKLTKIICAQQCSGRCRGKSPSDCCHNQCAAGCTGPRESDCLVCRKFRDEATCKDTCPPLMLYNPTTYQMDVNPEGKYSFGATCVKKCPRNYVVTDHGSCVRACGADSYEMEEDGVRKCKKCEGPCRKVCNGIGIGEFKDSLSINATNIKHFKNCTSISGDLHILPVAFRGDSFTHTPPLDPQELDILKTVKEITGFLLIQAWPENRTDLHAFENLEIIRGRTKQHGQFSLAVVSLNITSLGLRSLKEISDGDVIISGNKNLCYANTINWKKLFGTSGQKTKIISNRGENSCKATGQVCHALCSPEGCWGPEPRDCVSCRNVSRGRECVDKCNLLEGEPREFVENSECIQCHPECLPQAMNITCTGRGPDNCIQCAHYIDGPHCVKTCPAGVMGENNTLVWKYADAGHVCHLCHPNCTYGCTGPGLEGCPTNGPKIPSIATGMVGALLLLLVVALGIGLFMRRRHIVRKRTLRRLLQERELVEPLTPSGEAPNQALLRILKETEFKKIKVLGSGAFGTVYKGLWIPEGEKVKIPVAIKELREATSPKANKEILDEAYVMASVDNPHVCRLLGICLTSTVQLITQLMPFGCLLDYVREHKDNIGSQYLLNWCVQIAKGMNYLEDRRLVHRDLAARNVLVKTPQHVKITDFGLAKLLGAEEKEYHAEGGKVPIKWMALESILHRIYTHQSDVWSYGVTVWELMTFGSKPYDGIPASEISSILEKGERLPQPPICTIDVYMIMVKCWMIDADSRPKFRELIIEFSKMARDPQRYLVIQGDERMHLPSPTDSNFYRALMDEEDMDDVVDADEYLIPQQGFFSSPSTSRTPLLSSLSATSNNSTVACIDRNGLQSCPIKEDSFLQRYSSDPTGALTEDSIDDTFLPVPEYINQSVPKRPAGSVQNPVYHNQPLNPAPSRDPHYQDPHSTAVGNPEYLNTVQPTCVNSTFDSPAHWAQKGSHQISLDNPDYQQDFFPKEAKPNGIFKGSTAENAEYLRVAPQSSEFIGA

COc1c(I)cc(C=C2C(=O)Nc3ccc(S(=O)(=O)N4CCOCC4)cc32)cc1C(C)(C)C [10732/F11]
Met Kinase % Inhibition [1]: 65.1%
Flk Kinase % Inhibition [2]: 14.1%

CNS(=O)(=O)c1ccc2c(c1)C(=Cc1ccc(F)cc1C(F)(F)F)C(=O)N2 [10719/D11]
Met Kinase % Inhibition [1]: 12.8%
Biochem EGFR % Inhibition [3]: −11.1%
Flk Kinase % Inhibition [2]: −8.7%

Cc1cc(C=C2C(=O)Nc3ccc(I)cc32)sc1C [10721/B04]
Met Kinase % Inhibition [1]: 93.1%
Biochem EGFR % Inhibition [3]: 79.3%
Flk Kinase % Inhibition [2]: 13.8%

CCOC(=O)CCc1c(C(=O)OCC)[nH]c(C=C2C(=O)Nc3ccc(I)cc32)c1CC(=O)OCC [10718/B05]
Met Kinase % Inhibition [1]: 76.0%
Biochem EGFR % Inhibition [3]: 56.3%
Flk Kinase % Inhibition [2]: 11.5%

O=C1Nc2ccc(Br)cc2/C1=C\c1cc2c([nH]1)CCCC2 [compound 0129]
IC50 [2, 5]: 19.6 µM

Cn1cc(/C=C2\C(=O)Nc3ccc(N)cc32)c2ccccc21
IC50 [2, 6]: 2.5 µM

O=C1Nc2ccc(I)cc2C1=Cc1ccc(Cl)s1 [10721/B07]
Met Kinase % Inhibition [1]: 47.1%
Biochem EGFR % Inhibition [3]: 47.6%
Flk Kinase % Inhibition [2]: 11.2%

O=C1Nc2c(Br)cc(Cl)cc2/C1=C/c1cc(O)c(O)c(Br)c1
IC50 [2, 7]: 8.8 µM

Cc1ccc(/C=C2\C(=O)Nc3ccc(C(=O)O)cc32)s1
Activity EC200 [2]: ActivityEC200 = 46 μm

Cn1cc(/C=C2\C(=O)Nc3ccc(F)cc32)c2ccccc21
IC50 [2, 6]: 14 µM

CCc1cc(CC)c(/C=C2\C(=O)Nc3ccc(N)cc32)[nH]1
IC50 [2, 7]: 5.6 µM

O=C1Nc2ccc(I)cc2C1=Cc1cc2c3c(c1O)CCCN3CCC2 [10724/B05]
Met Kinase % Inhibition [1]: 45.6%
Biochem EGFR % Inhibition [3]: 21.2%
PDGF Kinase % Inhibition [4]: 12.6%
Flk Kinase % Inhibition [2]: −2.2%

O=C1Nc2ccc(I)cc2C1=Cc1cc([N+](=O)[O-])cc(CCl)c1O [10721/B06]
Met Kinase % Inhibition [1]: 92.4%
Biochem EGFR % Inhibition [3]: 71.5%
Flk Kinase % Inhibition [2]: 3.4%

Cc1cc(C)c(/C=C2\C(=O)Nc3cccc(C)c32)[nH]1
IC50 [2, 7]: 7.3 µM

O=C1Nc2ccccc2/C1=C\c1cc2c([nH]1)CCCC2 [compound 0128]
IC50 [2, 5]: 1.7 µM

Nc1ccc2c(c1)/C(=C/c1cc3c([nH]1)CCCC3)C(=O)N2
IC50 [2, 8]: 1.2 µM

O=C1Nc2ccccc2/C1=C/c1cc2c([nH]1)CCCC2
IC50 [2, 8]: 1.4 µM

O=C1Nc2ccc(Cl)cc2/C1=C/c1c[nH]cn1
IC50 [2, 7]: 5.6 µM

Cc1cc(C)c(/C=C2\C(=O)Nc3ccc(C(=O)O)cc32)[nH]1
Activity EC200 [2]: ActivityEC200 = 2.8 μm

Cc1cccc2c1/C(=C/c1cc(C(C)C)c(OCc3ccccc3)c(C(C)C)c1)C(=O)N2
IC50 [2, 7]: 19.9 µM

Cc1cccc2c1/C(=C/c1ccc(OCCCN(C)C)cc1)C(=O)N2
IC50 [2, 7]: 8 µM

O=C1Nc2ccccc2/C1=C/c1ccc(N2CCCC2)cc1
IC50 [2, 7]: 9.9 µM

COc1ccc(/C=C2\C(=O)Nc3ccccc32)cc1O
IC50 [2, 7]: 2.9 µM

O=CN1CCN(c2ccc(/C=C3\C(=O)Nc4ccc(Cl)cc43)cc2)CC1
IC50 [2, 7]: 5.8 µM

CCOC(=O)c1c(C)c(/C=C2\C(=O)Nc3ccccc32)n(C)c1C
IC50 [2, 7]: 0.97 µM

O=C1Nc2ccc(I)cc2C1=Cc1ccc2c(c1)Cc1ccccc1-2 [10728/B06]
Met Kinase % Inhibition [1]: 56.0%
Biochem EGFR % Inhibition [3]: 38.1%
PDGF Kinase % Inhibition [4]: 7.6%
Flk Kinase % Inhibition [2]: 4.7%

COC(=O)CCc1c[nH]c(/C=C2\C(=O)Nc3ccc(N)cc32)c1C
IC50 [2, 7]: 4.7 µM

CCc1c(C)[nH]c(/C=C2\C(=O)Nc3ccc(N)cc32)c1C
IC50 [2, 7]: 1.5 µM

O=C1Nc2ccc(I)cc2C1=Cc1ccc([N+](=O)[O-])c(O)c1 [10724/B04]
Met Kinase % Inhibition [1]: 81.2%
Biochem EGFR % Inhibition [3]: 50.2%
PDGF Kinase % Inhibition [4]: 42.5%
Flk Kinase % Inhibition [2]: −20.5%

Cc1ccc(/C=C2\C(=O)Nc3ccc(CCC(=O)O)cc32)s1
Activity EC200 [2]: ActivityEC200 > 100 μm

CC(C)(C)c1cc(/C=C2\C(=O)Nc3ccc([N+](=O)[O-])cc32)cc([N+](=O)[O-])c1OCc1ccccc1
IC50 [2, 7]: 16.4 µM

Cc1cccc2c1/C(=C/c1cn(C)c3ccccc13)C(=O)N2
IC50 [2, 6]: 7.7 µM

Cc1cc(C=C2C(=O)Nc3ccc(I)cc32)cc(C)c1O [10722/B07]
Met Kinase % Inhibition [1]: 48.2%
Biochem EGFR % Inhibition [3]: 6.2%
PDGF Kinase % Inhibition [4]: 20.9%
Flk Kinase % Inhibition [2]: 6.6%

Nc1ccc2c(c1)/C(=C/c1ccc(N3CCCC3)cc1)C(=O)N2
IC50 [2, 7]: 18.4 µM

CCc1cc(CC)c(/C=C2\C(=O)Nc3ccc(C(=O)O)cc32)[nH]1
Activity EC200 [2]: ActivityEC200 = 2.8 μm

Cc1cc(C)n(C)c1/C=C1\C(=O)Nc2ccc(N)cc21
IC50 [2, 7]: 1.1 µM

Cc1cc(C)c(/C=C2\C(=O)Nc3ccc(CCC(=O)O)cc32)[nH]1
Activity EC200 [2]: ActivityEC200 = 32 μm

Cn1cc(Cl)c(C=C2C(=O)Nc3ccc(I)cc32)n1 [10721/B03]
Met Kinase % Inhibition [1]: 70.8%
Biochem EGFR % Inhibition [3]: 38.9%
Flk Kinase % Inhibition [2]: 19.9%

O=C1Nc2ccc(Cl)cc2/C1=C/c1ccc(O)c(Br)c1
IC50 [2, 7]: 5.2 µM

O=C1Nc2ccc(CCCl)cc2C1=Cc1cccc(Br)c1 [10723/G10]
Flk Kinase % Inhibition [2]: 3.5%

Cc1ccc(C=C2C(=O)Nc3ccc(I)cc32)o1 [10725/B04]
Met Kinase % Inhibition [1]: 90.4%
Biochem EGFR % Inhibition [3]: 76.9%
PDGF Kinase % Inhibition [4]: 9.3%
Flk Kinase % Inhibition [2]: 1.1%

O=C1Nc2ccc(Cl)cc2/C1=C/c1cc2c([nH]1)CCCC2
IC50 [2, 8]: 5 µM

O=C1Nc2ccc(I)cc2C1=Cc1csc([N+](=O)[O-])c1 [10722/B09]
Met Kinase % Inhibition [1]: 59.7%
Biochem EGFR % Inhibition [3]: 7.8%
PDGF Kinase % Inhibition [4]: 14.6%
Flk Kinase % Inhibition [2]: 8.7%

COc1ccc(OC)c(/C=C2\C(=O)Nc3cccc(C)c32)c1
IC50 [2, 7]: 10.4 µM

Cc1[nH]c(/C=C2\C(=O)Nc3ccc(N)cc32)c(Br)c1Br
IC50 [2, 7]: 1.9 µM

COC(=O)CCc1c[nH]c(/C=C2\C(=O)Nc3ccccc32)c1C
IC50 [2, 7]: 12.5 µM

Cc1cc(C)c2c(c1)NC(=O)/C2=C\c1c[nH]cn1
IC50 [2, 7]: 4.6 µM

CN(C)CCCOc1ccc(/C=C2\C(=O)Nc3ccc(Cl)cc32)cc1
IC50 [2, 7]: 11.5 µM

CN(C)CCCOc1ccc(/C=C2\C(=O)Nc3ccc(N)cc32)cc1
IC50 [2, 7]: 13.7 µM

COc1c(O)ccc(/C=C2\C(=O)Nc3ccc(Cl)cc32)c1[N+](=O)[O-]
IC50 [2, 7]: 10.7 µM

Cc1ccc(C=C2C(=O)Nc3c(Br)cc(Br)cc32)o1 [10725/A04]
Met Kinase % Inhibition [1]: 55.3%
Biochem EGFR % Inhibition [3]: 26.2%
PDGF Kinase % Inhibition [4]: −3.2%
Flk Kinase % Inhibition [2]: −8.6%

CNS(=O)(=O)c1ccc2c(c1)C(=Cc1c(OC)ccc3ccccc13)C(=O)N2 [10729/D02]
Biochem EGFR % Inhibition [3]: 5.7%

CCc1cc(CC)c(/C=C2\C(=O)Nc3ccccc32)[nH]1
IC50 [2, 7]: 8.1 µM

CNS(=O)(=O)c1ccc2c(c1)C(=Cc1cccc(C#N)c1)C(=O)N2 [10727/D08]
Met Kinase % Inhibition [1]: 8.5%
PDGF Kinase % Inhibition [4]: 5.0%

CC(C)c1cc(C(C)C)c(/C=C2\C(=O)Nc3ccc(C(=O)O)cc32)[nH]1
Activity EC200 [2]: ActivityEC200 = 10 μm

COC(=O)CCc1c[nH]c(/C=C2\C(=O)Nc3ccc(Cl)cc32)c1C
IC50 [2, 7]: 5.6 µM

COC(=O)CCc1c[nH]c(/C=C2\C(=O)Nc3cccc(C)c32)c1C
IC50 [2, 7]: 10.8 µM

CC(C)(C)c1ccc(/C=C2\C(=O)Nc3ccccc32)cc1
IC50 [2, 7]: 9.7 µM

Cn1c(C=C2C(=O)Nc3ccc(I)cc32)nc2ccccc21 [10721/B02]
Met Kinase % Inhibition [1]: 82.6%
Biochem EGFR % Inhibition [3]: 58.6%
Flk Kinase % Inhibition [2]: 19.5%

CN(C)c1ccc(C=C2C(=O)Nc3ccc(I)cc32)c2ccccc12 [10724/B02]
Met Kinase % Inhibition [1]: 48.8%
Biochem EGFR % Inhibition [3]: 34.9%
PDGF Kinase % Inhibition [4]: −21.5%
Flk Kinase % Inhibition [2]: −6.2%
